Data: US20210127673A1, “HERBICIDES” (SYNGENTA PARTICIPATIONS AG, priority 2016, published 2021)

Columns and labels:
Type in all cases: in vivo
Conditions in all cases: evaluated after 13 days
[1] = test system: Setaria faberi (SETFA); test: Post-emergence herbicidal activity, Setaria faberi; parameters: key: 5=total damage to plant; 0=no damage to plant
How it was run: (§1)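 Pot-grown plants in standard soil were sprayed 8 days after sowing with active ingredient in acetone/water (50:50) containing 0.5% Tween 20. Glasshouse at 24/16 °C day/night, 14 h light, 65% humidity, watered twice daily. Damage scored after 13 days on 0 (none) to 5 (total) scale.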

[2] = test system: Triticum aestivium (TRZAW); test: Pre-emergence herbicidal activity, Triticum aestivium; parameters: key: 5=total damage to plant; 0=no damage to plant
How it was run: (§2)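 Seeds sown in standard soil in pots, grown one day in a glasshouse (24/16 °C day/night, 14 h light, 65% humidity), then sprayed pre-emergence with compound in acetone/water (50:50) containing 0.5% Tween 20. Plants were scored after 13 days on a 0–5 scale (5 = total damage, 0 = none).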

[3] = test system: Alopecurus myosuroides (ALOMY); test: Pre-emergence herbicidal activity, Alopecurus myosuroides; parameters: key: 5=total damage to plant; 0=no damage to plant
How it was run: as §2

[4] = test system: Setaria faberi (SETFA); test: Pre-emergence herbicidal activity, Setaria faberi; parameters: key: 5=total damage to plant; 0=no damage to plant
How it was run: as §2

[5] = test system: Avena fatua (AVEFA); test: Pre-emergence herbicidal activity, Avena fatua; parameters: key: 5=total damage to plant; 0=no damage to plant
How it was run: as §2

[6] = test system: Lolium perenne (LOLPE); test: Post-emergence herbicidal activity, Lolium perenne; parameters: key: 5=total damage to plant; 0=no damage to plant
How it was run: as §1

[7] = test system: Alopecurus myosuroides (ALOMY); test: Post-emergence herbicidal activity, Alopecurus myosuroides; parameters: key: 5=total damage to plant; 0=no damage to plant
How it was run: as §1

[8] = test system: Triticum aestivium (TRZAW); test: Post-emergence herbicidal activity, Triticum aestivium; parameters: key: 5=total damage to plant; 0=no damage to plant
How it was run: as §1

[9] = test system: Echinochloa crus-galli (ECHCG); test: Pre-emergence herbicidal activity, Echinochloa crus-galli; parameters: key: 5=total damage to plant; 0=no damage to plant
How it was run: as §2

[10] = test system: Lolium perenne (LOLPE); test: Pre-emergence herbicidal activity, Lolium perenne; parameters: key: 5=total damage to plant; 0=no damage to plant
How it was run: as §2

[11] = test system: Avena fatua (AVEFA); test: Post-emergence herbicidal activity, Avena fatua
How it was run: as §1

[12] = test system: Echinochloa crus-galli (ECHCG); test: Post-emergence herbicidal activity, Echinochloa crus-galli; parameters: key: 5=total damage to plant; 0=no damage to plant
How it was run: as §1

SMILES | Control of SETFA after post-emergence application (score 0-5) ([1]; 1000 g/ha) | Control of TRAZW after pre-emergence application (score 0-5) ([2]; 1000 g/ha) | Control of ALOMY after pre-emergence application (score 0-5) ([3]; 1000 g/ha) | Control of SETFA after pre-emergence application (score 0-5) ([4]; 1000 g/ha) | Control of AVEFA after pre-emergence application (score 0-5) ([5]; 1000 g/ha) | Control of LOLPE after post-emergence application (score 0-5) ([6]; 1000 g/ha) | Control of ALOMY after post-emergence application (score 0-5) ([7]; 1000 g/ha) | Control of TRAZW after post-emergence application (score 0-5) ([8]; 1000 g/ha) | Control of ECHCG after pre-emergence application (score 0-5) ([9]; 1000 g/ha) | Control of LOLPE after pre-emergence application (score 0-5) ([10]; 1000 g/ha) | Control of AVEFA after post-emergence application (score 0-5) ([11]; 1000 g/ha) | Control of ECHCG after post-emergence application (score 0-5) ([12]; 1000 g/ha) | other results
CC(C)(C)OC(=O)Nc1ccc(-c2cncc(F)c2)nc1-c1ccccc1 [Compound B112, tert-butyl N-[6-(5-fluoro-3-pyridyl)-2-phenyl-3-pyridyl]carbamate] | 3 | 0 | 0 | 4 | 0 | 0 | 0 | 0 | 3 | 0 | 1 | 1 | 
COC(=O)CN(C(=O)OC(C)(C)C)c1ccc(-c2cncc(F)c2)nc1C(F)(F)F [Compound B11] | 3 | 0 | 0 | 1 | 0 | 1 | 0 | 0 | 0 | 0 | 1 | 2 | 
CC(C)(C)OC(=O)Nc1ccc(-c2cncc(C#N)c2)nc1C(F)(F)F [Compound B7] | 5 | 0 | 0 | 5 | 1 | 2 | 1 | 1 | 2 | 1 | 4 | 4 | 
O=C(Nc1ccccc1)Nc1ccc(-c2cncc(F)c2)nc1C(F)(F)F [Compound B71] | 3 | 0 | 0 | 1 | 0 | 2 | 0 | 1 | 1 | 0 | 2 | 3 | 
CCC(C)OC(=O)Nc1ccc(-c2cncc(F)c2)nc1C(F)(F)F (stereo not drawn) [Compound B56] | 4 | 0 | 0 | 2 | 1 | 3 | 0 | 0 | 1 | 0 | 3 | 4 | 
O=C(Nc1ccc(-c2cncc(F)c2)nc1C(F)(F)F)N1CC[S+]([O-])C1 (stereo not drawn) [Compound B117, N-[6-(5-fluoro-3-pyridyl)-2-(trifluoromethyl)-3-pyridyl]-1-oxo-1,3-thiazolidine-3-carboxamide] | 5 | 0 | 0 | 5 | 3 | 4 | 1 | 3 | 4 | 1 | 4 | 5 | 
CC(C)(C)CNC(=O)Nc1ccc(-c2cncc(F)c2)nc1C(F)(F)F [Compound B107] |  |  |  |  |  |  |  |  |  |  |  |  | Control of SETFA after post-emergence application (score 0-5) ([1]; 250 g/ha): 5; Control of TRAZW after pre-emergence application (score 0-5) ([2]; 250 g/ha): 1; Control of ALOMY after pre-emergence application (score 0-5) ([3]; 250 g/ha): 1; Control of SETFA after pre-emergence application (score 0-5) ([4]; 250 g/ha): 4; Control of AVEFA after pre-emergence application (score 0-5) ([5]; 250 g/ha): 1; Control of LOLPE after post-emergence application (score 0-5) ([6]; 250 g/ha): 1; Control of ALOMY after post-emergence application (score 0-5) ([7]; 250 g/ha): 0; Control of TRAZW after post-emergence application (score 0-5) ([8]; 250 g/ha): 0; Control of ECHCG after pre-emergence application (score 0-5) ([9]; 250 g/ha): 3; Control of LOLPE after pre-emergence application (score 0-5) ([10]; 250 g/ha): 3; Control of AVEFA after post-emergence application (score 0-5) ([11]; 250 g/ha): 3; Control of ECHCG after post-emergence application (score 0-5) ([12]; 250 g/ha): 3
O=C(Nc1ccc(-c2cncc(F)c2)nc1C(F)(F)F)OCC(F)(F)F [Compound B57] | 3 | 0 | 0 | 3 | 1 | 2 | 0 | 0 | 2 | 1 | 3 | 4 | 
O=C(Nc1ccc(-c2cncc(F)c2)nc1C(F)(F)F)NC1CCCC1 [Compound B50] | 5 | 0 | 0 | 4 | 1 | 1 | 0 | 0 | 2 | 1 | 3 | 4 | 
